Data taken from patent publication US12559506B2, “Indazole based compounds and associated methods of use” (Arvinas Operations, Inc., priority 2021, dated 2026).
Like-named read-outs stand apart in the source and are kept apart here.

Target: T1, LRRK2 (endogenous, HiBit tagged) (Homo sapiens, UniProt Q5S007)
T1 construct: endogenous in cells; host or cells: HEK293 cells with HiBit knock-in at the endogenous LRRK2 locus, stably expressing firefly luciferase
Test: Endogenous LRRK2 degradation assay, endogenous gene C-terminally HiBit-tagged in HEK293 cells (Nano-Glo Dual Luciferase)
Format: cell-based
In short: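 LRRK2-HiBit quantified via Nano-Glo Dual Luciferase in HEK293 knock-in cells co-expressing firefly luciferase, after 24 h exposure to compound (1 μM final top, 1:3, 11 points). Values normalised to DMSO median per plate and curve-fitted; Alamar Blue viability run alongside.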

[1] = endogenous HiBit-tagged LRRK2 in HEK293 cells, 24 hours treatment, read-out: Endogenous WT DC50
[2] = endogenous HiBit-tagged LRRK2 in HEK293 cells, 24 hours treatment, read-out: Endogenous WT Dmax
[3] = endogenous HiBit-tagged LRRK2 in HEK293 cells, 24 hours treatment, read-out: **Endogenous WT Dmax (%)
[4] = endogenous HiBit-tagged LRRK2 in HEK293 cells, 24 hours treatment, read-out: *Endogenous WT DC50
[5] = endogenous HiBit-tagged LRRK2, HEK293 cells, 24 hours, read-out: **Endogenous WT Dmax (%)
[6] = endogenous HiBit-tagged LRRK2, HEK293 cells, 24 hours, read-out: *Endogenous WT DC50

T1 sequence (Q5S007 whole entry): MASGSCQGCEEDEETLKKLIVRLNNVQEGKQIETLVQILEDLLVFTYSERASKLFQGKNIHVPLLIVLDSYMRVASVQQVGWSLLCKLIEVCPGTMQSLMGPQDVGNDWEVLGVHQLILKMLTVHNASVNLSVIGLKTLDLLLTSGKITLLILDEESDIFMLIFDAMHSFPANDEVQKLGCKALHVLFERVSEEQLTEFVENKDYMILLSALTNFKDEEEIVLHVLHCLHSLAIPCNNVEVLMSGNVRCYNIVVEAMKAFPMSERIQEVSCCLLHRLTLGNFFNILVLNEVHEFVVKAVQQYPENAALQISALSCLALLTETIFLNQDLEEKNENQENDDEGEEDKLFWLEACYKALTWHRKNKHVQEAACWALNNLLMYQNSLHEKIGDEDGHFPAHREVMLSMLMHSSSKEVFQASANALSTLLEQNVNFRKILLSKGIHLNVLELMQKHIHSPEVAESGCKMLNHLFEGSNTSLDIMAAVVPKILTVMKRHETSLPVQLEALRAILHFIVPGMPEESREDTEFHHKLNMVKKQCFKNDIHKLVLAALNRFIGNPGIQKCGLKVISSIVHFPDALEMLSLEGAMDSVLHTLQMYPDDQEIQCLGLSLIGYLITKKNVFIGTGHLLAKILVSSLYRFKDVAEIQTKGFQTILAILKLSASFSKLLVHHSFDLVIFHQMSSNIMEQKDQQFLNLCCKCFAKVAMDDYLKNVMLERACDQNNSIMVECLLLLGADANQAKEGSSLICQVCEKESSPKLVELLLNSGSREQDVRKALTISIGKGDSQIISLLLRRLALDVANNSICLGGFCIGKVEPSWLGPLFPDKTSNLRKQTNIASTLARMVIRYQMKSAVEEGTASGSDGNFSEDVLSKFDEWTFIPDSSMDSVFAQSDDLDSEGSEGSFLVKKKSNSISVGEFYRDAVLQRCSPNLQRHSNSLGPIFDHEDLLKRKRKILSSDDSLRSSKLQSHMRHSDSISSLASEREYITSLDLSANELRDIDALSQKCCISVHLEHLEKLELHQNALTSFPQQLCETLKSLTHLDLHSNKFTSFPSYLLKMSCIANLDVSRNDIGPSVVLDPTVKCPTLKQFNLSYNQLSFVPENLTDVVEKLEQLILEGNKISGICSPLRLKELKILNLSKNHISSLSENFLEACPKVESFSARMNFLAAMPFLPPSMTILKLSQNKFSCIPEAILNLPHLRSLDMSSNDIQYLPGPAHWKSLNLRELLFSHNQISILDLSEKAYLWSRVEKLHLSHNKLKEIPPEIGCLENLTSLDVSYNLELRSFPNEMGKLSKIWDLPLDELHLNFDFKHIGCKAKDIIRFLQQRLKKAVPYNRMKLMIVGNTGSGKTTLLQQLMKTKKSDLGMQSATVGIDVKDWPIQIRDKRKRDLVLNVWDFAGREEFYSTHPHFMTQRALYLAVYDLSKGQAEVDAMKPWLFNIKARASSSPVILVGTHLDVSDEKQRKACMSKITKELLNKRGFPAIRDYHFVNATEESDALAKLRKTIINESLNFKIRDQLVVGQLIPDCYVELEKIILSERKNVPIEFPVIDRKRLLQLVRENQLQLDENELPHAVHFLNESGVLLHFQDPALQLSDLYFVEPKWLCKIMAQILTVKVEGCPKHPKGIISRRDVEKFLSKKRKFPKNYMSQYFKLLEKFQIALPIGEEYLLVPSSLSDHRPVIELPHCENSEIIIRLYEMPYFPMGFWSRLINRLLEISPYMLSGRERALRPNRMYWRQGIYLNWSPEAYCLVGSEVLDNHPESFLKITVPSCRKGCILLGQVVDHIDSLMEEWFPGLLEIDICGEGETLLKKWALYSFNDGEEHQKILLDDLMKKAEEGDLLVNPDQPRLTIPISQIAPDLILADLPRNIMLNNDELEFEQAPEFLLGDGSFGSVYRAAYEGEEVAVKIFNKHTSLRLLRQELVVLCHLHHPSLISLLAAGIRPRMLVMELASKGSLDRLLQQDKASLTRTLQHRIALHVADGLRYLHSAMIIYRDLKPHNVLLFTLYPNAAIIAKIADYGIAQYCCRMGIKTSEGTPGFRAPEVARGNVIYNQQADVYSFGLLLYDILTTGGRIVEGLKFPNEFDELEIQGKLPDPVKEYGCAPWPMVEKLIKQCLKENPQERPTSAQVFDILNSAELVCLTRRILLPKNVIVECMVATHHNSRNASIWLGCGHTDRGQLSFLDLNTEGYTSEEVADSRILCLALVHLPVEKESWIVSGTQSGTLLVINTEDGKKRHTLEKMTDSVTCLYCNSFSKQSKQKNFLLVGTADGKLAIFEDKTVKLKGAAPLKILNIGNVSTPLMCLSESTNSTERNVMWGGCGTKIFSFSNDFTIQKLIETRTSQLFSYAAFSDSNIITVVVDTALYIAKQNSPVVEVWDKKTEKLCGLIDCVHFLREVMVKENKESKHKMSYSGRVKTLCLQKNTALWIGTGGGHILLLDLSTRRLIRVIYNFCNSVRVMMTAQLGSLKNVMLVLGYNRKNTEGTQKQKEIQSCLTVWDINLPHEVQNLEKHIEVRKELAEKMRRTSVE

SMILES	DC50 [1]	Dmax [2]	Dmax [3]	DC50 [4]	further results
CC1(Oc2ccc3n[nH]c(-c4cc(N5CCC(O[C@H]6CC[C@H](CN7CCN(c8ccc9c(c8F)CN(C8CCC(=O)NC8=O)C9=O)CC7)CC6)CC5)ncn4)c3c2)CC1 (some centres unmarked) [Compound 213, 3-[4-fluoro-5-[4-[[4-[[1-[6-[5-(1-methylcyclopropoxy)-2H-indazol-3-yl]pyrimidin-4-yl]-4-piperidyl]oxy]cyclohexyl]methyl]piperazin-1-yl]-1-oxo-isoindolin-2-yl]piperidine-2,6-dione]	< 10 nM	≥ 70%			
COc1c(N2CCN(C[C@H]3CC[C@H](CN4CCN(c5cc(-c6n[nH]c7cnc(OC8(C)CC8)cc67)ncn5)CC4)CC3)CC2)ccc2c1CN(C1CCC(=O)NC1=O)C2=O (some centres unmarked) [Compound 261, 3-[4-methoxy-1-oxo-5-(4-{[(1r,4r)-4-[(4-{6-[5-(1-methylcyclopropoxy)-1H-pyrazolo[3,4-c]pyridin-3-yl]pyrimidin-4-yl}piperazin-1-yl)methyl]cyclohexyl]methyl}piperazin-1-yl)-2,3-dihydro-1H-isoindol-2-yl]piperidine-2,6-dione]			50 to 70%	< 10 nM	
CC1(Oc2ccc3[nH]nc(-c4cc(N5CCC(CN6CCC(F)(CN7CCN(c8cc9c(cc8F)C(=O)N(C8CCC(=O)NC8=O)C9)CC7)CC6)CC5)ncn4)c3c2)CC1 (centres unmarked) [Compound 188, 3-[6-fluoro-5-[4-[[4-fluoro-1-[[1-[6-[5-(1-methylcyclopropoxy)-1H-indazol-3-yl]pyrimidin-4-yl]-4-piperidyl]methyl]-4-piperidyl]methyl]piperazin-1-yl]-1-oxo-isoindolin-2-yl]piperidine-2,6-dione]					Dmax [5]: ≥ 70%; DC50 [6]: < 10 nM
CC1(Oc2ccc3n[nH]c(-c4cc(N5CCN(C[C@H]6C[C@H](CN7CCN(c8ccc9c(c8F)CN(C8CCC(=O)NC8=O)C9=O)CC7)C6)CC5)ncn4)c3c2)CC1 (some centres unmarked) [Compound 334, 3-[4-fluoro-1-oxo-5-(4-{[(1r,3r)-3-[(4-{6-[5-(1-methylcyclopropoxy)-2H-indazol-3-yl]pyrimidin-4-yl}piperazin-1-yl)methyl]cyclobutyl]methyl}piperazin-1-yl)-2,3-dihydro-1H-isoindol-2-yl]piperidine-2,6-dione]			50 to 70%	< 10 nM	
CC1(Oc2ccc3n[nH]c(-c4cc(N5CCC(O[C@H]6CC[C@H](CN7CCN(c8cc9c(cc8F)C(=O)N(C8CCC(=O)NC8=O)C9)CC7)CC6)CC5)ncn4)c3c2)CC1 (some centres unmarked) [Compound 208, 3-[6-fluoro-5-[4-[[4-[[1-[6-[5-(1-methylcyclopropoxy)-2H-indazol-3-yl]pyrimidin-4-yl]-4-piperidyl]oxy]cyclohexyl]methyl]piperazin-1-yl]-1-oxo-isoindolin-2-yl]piperidine-2,6-dione]	< 10 nM	50 to 70%			
CC1(Oc2ccc3[nH]nc(-c4cc(N5CCC(CN6CCN(CC7CCN(c8cc9c(cc8F)C(=O)N(C8CCC(=O)NC8=O)C9)CC7)CC6)CC5)ncn4)c3c2)CC1 (centres unmarked) [Compound 180, 3-[6-fluoro-5-[4-[[4-[[1-[6-[5-(1-methylcyclopropoxy)-1H-indazol-3-yl]pyrimidin-4-yl]-4-piperidyl]methyl]piperazin-1-yl]methyl]-1-piperidyl]-1-oxo-isoindolin-2-yl]piperidine-2,6-dione]					Dmax [5]: ≥ 70%; DC50 [6]: < 10 nM
COc1c(N2CC[C@@H](CN3CCN(CC4CCN(c5cc(-c6n[nH]c7ccc(OC8(C)CC8)cc67)ncn5)CC4)CC3)C2)ccc2c1CN(C1CCC(=O)NC1=O)C2=O (stereo partly drawn) [Compound 328, 3-{4-methoxy-5-[(3S)-3-({4-[(1-{6-[5-(1-methylcyclopropoxy)-1H-indazol-3-yl]pyrimidin-4-yl}piperidin-4-yl)methyl]piperazin-1-yl}methyl)pyrrolidin-1-yl]-1-oxo-2,3-dihydro-1H-isoindol-2-yl}piperidine-2,6-dione]			50 to 70%	< 10 nM	
COc1c(N2CCC(O[C@H]3CC[C@H](CN4CCN(c5cc(-c6n[nH]c7cnc(OC8(C)CC8)cc67)ncn5)CC4)CC3)CC2)ccc2c1CN(C1CCC(=O)NC1=O)C2=O (some centres unmarked) [Compound 273, 3-[4-methoxy-1-oxo-5-(4-{[(1r,4r)-4-[(4-{6-[5-(1-methylcyclopropoxy)-1H-pyrazolo[3,4-c]pyridin-3-yl]pyrimidin-4-yl}piperazin-1-yl)methyl]cyclohexyl]oxy}piperidin-1-yl)-2,3-dihydro-1H-isoindol-2-yl]piperidine-2,6-dione]			< 50%	< 10 nM	
CC1(Oc2ccc3[nH]nc(-c4cc(N5CCN(C[C@H]6CC[C@H](OC7CCN(c8ccc9c(c8F)CN(C8CCC(=O)NC8=O)C9=O)CC7)CC6)C(C)(C)C5)ncn4)c3c2)CC1 (some centres unmarked) [Compound 381, 3-[4-fluoro-1-oxo-5-(4-{[(1r,4r)-4-[(2,2-dimethyl-4-{6-[5-(1-methylcyclopropoxy)-1H-indazol-3-yl]pyrimidin-4-yl}piperazin-1-yl)methyl]cyclohexyl]oxy}piperidin-1-yl)-2,3-dihydro-1H-isoindol-2-yl]piperidine-2,6-dione]	10 to 50 nM	< 50%			
CC1(Oc2ccc3n[nH]c(-c4cc(N5CC(OC6CCN(CC7CCN(c8ccc9c(c8F)CN(C8CCC(=O)NC8=O)C9=O)CC7)CC6)C5)ncn4)c3c2)CC1 (centres unmarked) [Compound 289, 3-{4-fluoro-5-[4-({4-[(1-{6-[5-(1-methylcyclopropoxy)-2H-indazol-3-yl]pyrimidin-4-yl}azetidin-3-yl)oxy]piperidin-1-yl}methyl)piperidin-1-yl]-1-oxo-2,3-dihydro-1H-isoindol-2-yl}piperidine-2,6-dione]			≥ 70%	< 10 nM	
COc1c(N2CCN(C[C@@H]3CO[C@@H](CN4CCN(c5cc(-c6[nH]nc7ccc(OC8(C)CC8)cc67)ncn5)CC4)CO3)CC2)ccc2c1CN(C1CCC(=O)NC1=O)C2=O (some centres unmarked) [Compound 291, 3-[4-methoxy-5-(4-{[(2r,5s)-5-[(4-{6-[5-(1-methylcyclopropoxy)-2H-indazol-3-yl]pyrimidin-4-yl}piperazin-1-yl)methyl]-1,4-dioxan-2-yl]methyl}piperazin-1-yl)-1-oxo-2,3-dihydro-1H-isoindol-2-yl]piperidine-2,6-dione]			≥ 70%	< 10 nM	
CC1(Oc2ccc3[nH]nc(-c4cc(N5CCN(C[C@H]6CC[C@H](OC7CCN(c8ccc9c(c8Cl)CN(C8CCC(=O)NC8=O)C9=O)CC7)CC6)CC5)ncn4)c3c2)CC1 (some centres unmarked) [Compound 243, 3-[4-chloro-1-oxo-5-(4-{[(1r,4r)-4-[(4-{6-[5-(1-methylcyclopropoxy)-1H-indazol-3-yl]pyrimidin-4-yl}piperazin-1-yl)methyl]cyclohexyl]oxy}piperidin-1-yl)-2,3-dihydro-1H-isoindol-2-yl]piperidine-2,6-dione]	< 10 nM	50 to 70%			
COc1c(N2CCC(O[C@H]3CC[C@H](CN4CCN(c5cc(-c6n[nH]c7ccc(OC8(C)CC8)cc67)ncn5)C[C@@H]4C)CC3)CC2)ccc2c1CN(C1CCC(=O)NC1=O)C2=O (stereo partly drawn) [Compound 366, 3-[4-methoxy-1-oxo-5-(4-{[(1r,4r)-4-{[(2S)-2-methyl-4-{6-[5-(1-methylcyclopropoxy)-1H-indazol-3-yl]pyrimidin-4-yl}piperazin-1-yl]methyl}cyclohexyl]oxy}piperidin-1-yl)-2,3-dihydro-1H-isoindol-2-yl]piperidine-2,6-dione]	< 10 nM	50 to 70%			
CC1(Oc2cc3c(-c4cc(N5CCC(CN6CCN(CC7CCN(c8ccc9c(c8F)CN(C8CCC(=O)NC8=O)C9=O)CC7)CC6(C)C)CC5)ncn4)n[nH]c3cc2F)CC1 (centres unmarked) [Compound 274, 3-{4-fluoro-5-[4-({4-[(1-{6-[6-fluoro-5-(1-methylcyclopropoxy)-1H-indazol-3-yl]pyrimidin-4-yl}piperidin-4-yl)methyl]-3,3-dimethylpiperazin-1-yl}methyl)piperidin-1-yl]-1-oxo-2,3-dihydro-1H-isoindol-2-yl}piperidine-2,6-dione]			50 to 70%	< 10 nM	
CC1(Oc2cc3c(-c4cc(N5CCN(C[C@H]6CC[C@H](CN7CCN(c8ccc9c(c8F)CN(C8CCC(=O)NC8=O)C9=O)CC7)CC6)CC5)ncn4)n[nH]c3cc2F)CC1 (some centres unmarked) [Compound 203, 3-[4-fluoro-1-oxo-5-(4-{[(1r,4r)-4-[(4-{6-[6-fluoro-5-(1-methylcyclopropoxy)-1H-indazol-3-yl]pyrimidin-4-yl}piperazin-1-yl)methyl]cyclohexyl]methyl}piperazin-1-yl)-2,3-dihydro-1H-isoindol-2-yl]piperidine-2,6-dione]	< 10 nM	≥ 70%			
CC1(Oc2ccc3n[nH]c(-c4cc(N5CCC(O[C@H]6CC[C@H](OC7CCN(c8ccc9c(c8F)CN(C8CCC(=O)NC8=O)C9=O)CC7)C6)CC5)ncn4)c3c2)CC1 (mixture of isomers) [Compound 240, 3-[4-fluoro-5-[4-[(1S,3S)-3-[[1-[6-[5-(1-methylcyclopropoxy)-2H-indazol-3-yl]pyrimidin-4-yl]-4-piperidyl]oxy]cyclopentoxy]-1-piperidyl]-1-oxo-isoindolin-2-yl]piperidine-2,6-dione and 3-[4-fluoro-5-[4-[(1R,3R)-3-[[1-[6-[5-(1-methylcyclopropoxy)-2H-indazol-3-yl]pyrimidin-4-yl]-4-piperidyl]oxy]cyclopentoxy]-1-piperidyl]-1-oxo-isoindolin-2-yl]piperidine-2,6-dione]	< 10 nM	50 to 70%			
